Laboratory results reported in PubChem BioAssay (NCI).
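Growth conditions: 96-well plates. Treatment: test compound, 48 hours, 5 concentrations. Analysis: linear interpolation between bracketing concentrations; unreached endpoints set to highest concentration. The concentration for full growth arrest is given as TGI.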

Tests used:
Test in all cases: NCI-60 cell line screen, 48 h
786-0 renal = test system: 786-0 renal
A498 renal = test system: A498 renal
A549 NSCLC = test system: A549 NSCLC
ACHN renal = test system: ACHN renal
BT-549 breast = test system: BT-549 breast
CAKI-1 renal = test system: CAKI-1 renal
CCRF-CEM leukemia = test system: CCRF-CEM leukemia
COLO 205 colon = test system: COLO 205 colon
DU-145 prostate = test system: DU-145 prostate
EKVX NSCLC = test system: EKVX NSCLC
HCC-2998 colon = test system: HCC-2998 colon
HCT-116 colon = test system: HCT-116 colon
HCT-15 colon = test system: HCT-15 colon
HL-60(TB) leukemia = test system: HL-60(TB) leukemia
HOP-62 NSCLC = test system: HOP-62 NSCLC
HOP-92 NSCLC = test system: HOP-92 NSCLC
HS 578T breast = test system: HS 578T breast
HT29 colon = test system: HT29 colon
IGROV1 ovarian = test system: IGROV1 ovarian
K-562 leukemia = test system: K-562 leukemia
KM12 colon = test system: KM12 colon
LOX IMVI melanoma = test system: LOX IMVI melanoma
M14 melanoma = test system: M14 melanoma
MALME-3M melanoma = test system: MALME-3M melanoma
MCF7 breast = test system: MCF7 breast
MDA-MB-231 breast = test system: MDA-MB-231 breast
MDA-MB-435 = test system: MDA-MB-435
MDA-N = test system: MDA-N
MOLT-4 leukemia = test system: MOLT-4 leukemia
NCI-H226 lung = test system: NCI-H226 lung
NCI-H23 lung = test system: NCI-H23 lung
NCI-H460 lung = test system: NCI-H460 lung
NCI-H522 lung = test system: NCI-H522 lung
NCI/ADR-RES ovarian = test system: NCI/ADR-RES ovarian
OVCAR-3 ovarian = test system: OVCAR-3 ovarian
OVCAR-4 ovarian = test system: OVCAR-4 ovarian
OVCAR-5 ovarian = test system: OVCAR-5 ovarian
OVCAR-8 ovarian = test system: OVCAR-8 ovarian
PC-3 prostate = test system: PC-3 prostate
RPMI-8226 leukemia = test system: RPMI-8226 leukemia
RXF 393 renal = test system: RXF 393 renal
SF-268 CNS = test system: SF-268 CNS
SF-295 CNS = test system: SF-295 CNS
SF-539 CNS = test system: SF-539 CNS
SK-MEL-2 melanoma = test system: SK-MEL-2 melanoma
SK-MEL-28 melanoma = test system: SK-MEL-28 melanoma
SK-MEL-5 melanoma = test system: SK-MEL-5 melanoma
SK-OV-3 ovarian = test system: SK-OV-3 ovarian
SN12C renal = test system: SN12C renal
SNB-19 CNS = test system: SNB-19 CNS
SNB-75 CNS = test system: SNB-75 CNS
SW-620 colon = test system: SW-620 colon
T-47D breast = test system: T-47D breast
TK-10 renal = test system: TK-10 renal
U251 CNS = test system: U251 CNS
UACC-257 melanoma = test system: UACC-257 melanoma
UACC-62 melanoma = test system: UACC-62 melanoma
UO-31 renal = test system: UO-31 renal

CN(C)CCNc1nc2ccccc2c2c1C(=O)c1ccccc1-2
TGI (786-0 renal): 3.66 µM
TGI (A498 renal): 1.24 µM
TGI (A549 NSCLC): 2.96 µM
TGI (ACHN renal): 0.601 µM
TGI (BT-549 breast): 3.14 µM
TGI (CAKI-1 renal): 2.54 µM
TGI (CCRF-CEM leukemia): 4.05 µM
TGI (COLO 205 colon): 2.23 µM
TGI (DU-145 prostate): 1.51 µM
TGI (EKVX NSCLC): 3.09 µM
TGI (HCC-2998 colon): 0.511 µM
TGI (HCT-116 colon): 1.38 µM
TGI (HCT-15 colon): 1.57 µM
TGI (HL-60(TB) leukemia): 0.812 µM
TGI (HOP-62 NSCLC): 3.72 µM
TGI (HOP-92 NSCLC): 3.07 µM
TGI (HS 578T breast): 24.3 µM
TGI (HT29 colon): 3.5 µM
TGI (IGROV1 ovarian): 0.807 µM
TGI (K-562 leukemia): 0.396 µM
TGI (KM12 colon): 2.11 µM
TGI (LOX IMVI melanoma): 0.961 µM
TGI (M14 melanoma): 1.67 µM
TGI (MALME-3M melanoma): 1.12 µM
TGI (MCF7 breast): 1.87 µM
TGI (MDA-MB-231 breast): 2.62 µM
TGI (MDA-MB-435): 1.12 µM
TGI (MDA-N): 1.39 µM
TGI (MOLT-4 leukemia): 0.098 µM
TGI (NCI-H226 lung): 0.862 µM
TGI (NCI-H23 lung): 1.82 µM
TGI (NCI-H460 lung): 0.415 µM
TGI (NCI-H522 lung): 0.895 µM
TGI (NCI/ADR-RES ovarian): 2.06 µM
TGI (OVCAR-3 ovarian): 8.4 µM
TGI (OVCAR-4 ovarian): 1.41 µM
TGI (OVCAR-5 ovarian): 5.25 µM
TGI (OVCAR-8 ovarian): 2.26 µM
TGI (PC-3 prostate): 1.9 µM
TGI (RPMI-8226 leukemia): 0.599 µM
TGI (RXF 393 renal): 1.13 µM
TGI (SF-268 CNS): 2.4 µM
TGI (SF-295 CNS): 3.31 µM
TGI (SF-539 CNS): 3.04 µM
TGI (SK-MEL-2 melanoma): 1.55 µM
TGI (SK-MEL-28 melanoma): 2.84 µM
TGI (SK-MEL-5 melanoma): 1.92 µM
TGI (SK-OV-3 ovarian): 13.1 µM
TGI (SN12C renal): 0.45 µM
TGI (SNB-19 CNS): 5.42 µM
TGI (SNB-75 CNS): 1.68 µM
TGI (SW-620 colon): 4.9 µM
TGI (T-47D breast): 4.12 µM
TGI (TK-10 renal): 10.5 µM
TGI (U251 CNS): 2.83 µM
TGI (UACC-257 melanoma): 3.7 µM
TGI (UACC-62 melanoma): 0.437 µM
TGI (UO-31 renal): 3.17 µM

COc1cc(/C=C2\C[C@H]3[C@@H]4CC=C5C[C@@H](N6CCCC6)CC[C@]5(C)[C@H]4CC[C@]3(C)[C@H]2OC(C)=O)cc(OC)c1OC
TGI (786-0 renal): 23.3 µM
TGI (A498 renal): 28.7 µM
TGI (A549 NSCLC): 32 µM
TGI (ACHN renal): 32.9 µM
TGI (BT-549 breast): 28.1 µM
TGI (CAKI-1 renal): 32.6 µM
TGI (CCRF-CEM leukemia): > 100 µM
TGI (COLO 205 colon): 25.6 µM
TGI (DU-145 prostate): 32.9 µM
TGI (EKVX NSCLC): 27.3 µM
TGI (HCC-2998 colon): 10.4 µM
TGI (HCT-116 colon): 30.5 µM
TGI (HCT-15 colon): 25.1 µM
TGI (HL-60(TB) leukemia): 65.7 µM
TGI (HOP-62 NSCLC): 29.3 µM
TGI (HOP-92 NSCLC): 22.3 µM
TGI (HS 578T breast): 35.1 µM
TGI (HT29 colon): 21.6 µM
TGI (IGROV1 ovarian): 29.9 µM
TGI (KM12 colon): 31.2 µM
TGI (M14 melanoma): 31.9 µM
TGI (MALME-3M melanoma): 38.1 µM
TGI (MCF7 breast): 29.8 µM
TGI (MDA-MB-231 breast): 29.8 µM
TGI (MDA-MB-435): 26.8 µM
TGI (MDA-N): 23.3 µM
TGI (MOLT-4 leukemia): 22.5 µM
TGI (NCI-H226 lung): 48.3 µM
TGI (NCI-H23 lung): 28.5 µM
TGI (NCI-H522 lung): 30.4 µM
TGI (NCI/ADR-RES ovarian): 30.9 µM
TGI (OVCAR-3 ovarian): 29.8 µM
TGI (OVCAR-4 ovarian): 34.8 µM
TGI (OVCAR-5 ovarian): 29.7 µM
TGI (OVCAR-8 ovarian): 28.7 µM
TGI (PC-3 prostate): 27.2 µM
TGI (RPMI-8226 leukemia): 29.6 µM
TGI (RXF 393 renal): 27 µM
TGI (SF-268 CNS): 27.7 µM
TGI (SF-295 CNS): 26.5 µM
TGI (SK-MEL-2 melanoma): 31.6 µM
TGI (SK-MEL-28 melanoma): 34.1 µM
TGI (SK-MEL-5 melanoma): 28.4 µM
TGI (SK-OV-3 ovarian): 29.1 µM
TGI (SN12C renal): 27.8 µM
TGI (SNB-19 CNS): 34.2 µM
TGI (SNB-75 CNS): 29.4 µM
TGI (SW-620 colon): 34.7 µM
TGI (T-47D breast): 44.8 µM
TGI (TK-10 renal): 34.8 µM
TGI (U251 CNS): 29.2 µM
TGI (UACC-257 melanoma): 33.8 µM
TGI (UACC-62 melanoma): 31.7 µM
TGI (UO-31 renal): 30 µM
